# Measured values from patent US11752158B2 (priority 2007, dated 2023).
# “And” between values parts separate entries of the source, which are not always exact repeats. Identical values can stand only once. “Also recorded” adds a separate entry of the source.
# Key:
# male Sprague-Dawley rats [1] = test: Gross necropsy after 5-day i.v. dosing (Example 1); type: in vivo, rat; conditions: i.v. once a day for 5 days
# Description: (§1) To examine the reduction of toxicity associated with the co-administration of 25-hydroxyvitamin D3 with 25-hydroxyvitamin D2 compared to 25-hydroxyvitamin D3 alone, 90 male Sprague-Dawley rats are treated intravenously for five consecutive days with various combinations of 25-hydroxyvitamin D3 and 25-hydroxyvitamin D2. One day prior to the initiation of the study, rats are randomly selected, assigned to groups and treated as follows in Table 3:
# (§2) For each day's treatment of each animal, the appropriate material was administered i.v. Daily treatments were performed within a 3 hours window on each day. On the first day of treatment (pre-dose) and at 24 hours time points on day 2 before the second dose administration (0 being the time of the first injection), blood (˜1 mL) was collected from the jugular vein catheter from animals in Group 1 to 15 into unpreserved tubes. The serum was separated out, transferred into new tubes that were immediately frozen at approximately −80° C. Prior to the sacrifice of all animals at 120 hours on Day 6 blood (˜2 mL) was collected into unpreserved tubes from the jugular vein catheter from all animals. […] For each animal, the necropsy consisted of an external examination, including reference to all clinically recorded lesions, as well as internal “abbreviated” examinations.
# male Sprague-Dawley rats [2] = test: Serum calcium levels after 5-day i.v. dosing (Example 1, FIG. 2); type: in vivo, rat; conditions: Group 11: 6 μg/kg 25-hydroxyvitamin D3 alone, 5 day treatment period
# Description: as §1, §2
# [3] = Total serum 25-hydroxyvitamin D by LC-MS/MS (Example 1, FIG. 1); type: in vivo, rat; conditions: indicated dosing, daily for a period of 5 days; 120 hours post initial dose
# Description: as §1
# (§3) The concentration of total 25-hydroxyvitamin D at 120 hours post initial dose was determined in serum samples using a high-performance liquid chromatographic method using tandem mass spectrometry detection. The method was utilized to determine the individual concentrations of 25-hydroxyvitamin D3 and 25-hydroxyvitamin D2 in serum and the total was determined as a sum of the concentrations. At 24 h post final dose, serum collected from animals was analyzed for changes in levels of 25-hydroxyvitamin D3, 25-hydroxyvitamin D2 and their metabolites.
# [4] = Serum metabolites of 25-hydroxyvitamin D3 and 25-hydroxyvitamin D2 (Example 1, FIG. 4 and 5); type: in vivo, rat
# Description: as §3
# male Sprague-Dawley rats [5] = test: Serum calcium levels at day 5 (Example 2, FIG. 6); type: in vivo, rat; conditions: i.v. once a day for 5 days
# Description: Another study was carried out to assess the effects of co-administration of 25-hydroxyvitamin D with 25-hydroxyvitamin D2 compared to 25-hydroxyvitamin D3 alone on 102 male Sprague-Dawley rats. Rats about […], about 175-250 g in weight, were divided into groups of six males each. The groups were administered various combinations of 25-hydroxyvitamin D3 and 25-hydroxyvitamin D2 intravenously (or the same volume of control vehicle) once daily via the jugular vein catheter, for five consecutive days, according to Table 5 below.
# Dosing was carried out at similar times each day, within a three hour window of the time of last dose. Blood was collected at day 0 (the first day of treatment) for analysis, and animals were monitored twice daily. Animals from all groups were euthanized on day 5, 24 hours after the last dose, and blood was collected by cardiac puncture. All rats were subjected to an abbreviated necropsy.
# [6] = test system: patients with end-stage renal disease (ESRD); test: Serum calcium in end-stage renal disease patients on hemodialysis (Example 4); type: in vivo, human; conditions: i.v. thrice weekly
# Description: (§4) The formulations examined in this study are aqueous isotonic and sterile solutions containing either 20 mcg of 25-hydroxyvitamin D3 alone (test preparation #1) or in combination with 10 mcg 25-hydroxyvitamin D2 (test preparation #2). A total of 75 […] Caucasian, Asian, Hispanic and African-American subjects participate in this study, all of whom are at least 4-months on regular hemodialysis and have serum 25-hydroxyvitamin D levels below 15 ng/mL. Prior to enrolling, all subjects provide two fasting morning blood samples, separated by at least one week, to establish pre-treatment baseline values of serum calcium, plasma intact PTH, and serum 25-hydroxyvitamin D. On the morning of Day 1, the subjects are randomly assigned to one of three treatment groups, and they begin thrice weekly dosing with the test preparation #1 or #2, or with a matching placebo. All dosing occurs during regularly scheduled hemodialysis sessions and is accomplished by gradual injection (over a period of 1 to 5 minutes) into the blood exiting from the hemodialysis machine. […] At the conclusion of the study, the laboratory data are analyzed by treatment group and by test formulation after appropriate correction for baseline values. […]
# [7] = Serum 25-hydroxyvitamin D in end-stage renal disease patients on hemodialysis (Example 4); type: in vivo, human; conditions: i.v. thrice weekly, 20 mcg 25-hydroxyvitamin D3 alone or with 10 mcg 25-hydroxyvitamin D2; first 3 months of dosing, steady state thereafter
# Description: as §4
# [8] = test system: patients with advanced prostate cancer; conditions: human, in vivo, po
# Text: The efficacy and safety of an oral preparation of 25-hydroxyvitamin D2 is examined in a 3-month study of patients with advanced prostate cancer being treated with high-dose calcitriol once per week. For this study, 25-hydroxyvitamin D2 was formulated in soft-gelatin capsules. Forty patients with advanced prostate cancer undergoing treatment with high-dose calcitriol and Docetaxel were divided into two equal groups. Along with weekly calcitriol doses, group #1 receives between 2-20 mcg 25-hydroxyvitamin D2, while group #2 receives placebo. Prior to enrolling, all subjects provide two fasting morning blood samples, separated by at least one week, to establish pre-treatment baseline values of serum calcium, plasma intact PTH, and serum 25-hydroxyvitamin D. Additional fasting blood samples and 24-hour urine collections are obtained from each subject 24 h following the administration of the weekly administration of calcitriol for determination of serum calcium and serum 25-hydroxyvitamin D. Throughout the study, all subjects adhere to a daily intake of approximately 1,000 to 1,500 mg of elemental calcium (from self-selected diets and calcium supplements, as needed) under the ongoing guidance of a dietician. At the conclusion of the study, the laboratory data are analyzed by treatment group and by test formulation after appropriate correction for baseline values.
Structure (SMILES),"Gross Necropsy Findings (male Sprague-Dawley rats [1]; Group 6: 25-hydroxyvitamin D2 0 μg/kg, 25-hydroxyvitamin D3 0.3 μg/kg)","Gross Necropsy Findings (male Sprague-Dawley rats [1]; Group 11: 25-hydroxyvitamin D2 0 μg/kg, 25-hydroxyvitamin D3 6 μg/kg)",serum calcium levels (male Sprague-Dawley rats [2]),total serum 25-hydroxyvitamin D [3],"metabolism / catabolism of the prohormone ([4]; observation in rats, serum 24 h post final dose)",Serum calcium levels at day 5 (male Sprague-Dawley rats [5]; 4 μg/kg 25-hydroxyvitamin D3 alone),Serum calcium levels at day 5 (male Sprague-Dawley rats [5]; 8 μg/kg 25-hydroxyvitamin D3 alone),"mean serum calcium ([6]; 20 mcg 25-hydroxyvitamin D3 alone or with 10 mcg 25-hydroxyvitamin D2, 3-month study)","episodes of hypercalcemia (serum calcium above 10.2 mg/dL) ([6]; 20 mcg 25-hydroxyvitamin D3 alone, 3-month study)",serum 25-hydroxyvitamin D levels [7],"metabolism / catabolism of the prohormone ([4]; rat, in vivo)",episodes of hypercalcemia (serum calcium above 10.2 mg/dL) [8]
C=C1CC[C@H](O)C/C1=C/C=C1\CCC[C@]2(C)[C@@H]([C@H](C)CCCC(C)(C)O)CC[C@@H]12 [25-hydroxyvitamin D3],None,Severe signs of toxicity (blood in the lungs) and 4 of 6 animals treated exhibiting blood in lung tissue and 4/6 animals had,highest achieved level of serum calcium; also recorded: hypercalcemia,elevation,"catabolized more readily to the active 1,25-dihydroxyvitamin D3 form",hypercalcemia,hypercalcemia,increase significantly from baseline,more frequently observed,progressively increasing,,
C=C1CC[C@H](O)C/C1=C/C=C1\CCC[C@]2(C)[C@@H]([C@H](C)/C=C/[C@H](C)C(C)(C)O)CC[C@@H]12 [25-hydroxyvitamin D2],,,,,,,,,,,"catabolized more readily to 24, 25-dihydroxyvitamin D2",more frequently observed in the placebo group than in the treatment group
